According to patent publication US10765758B2, “Optimized in vivo delivery system with endosomolytic agents for nucleic acid conjugates” (ONXEO, priority 2010, dated 2020):
{Cy3} = cyanine 3 fluorescent label; {Chol} = cholesterol

Key:
SK28 melanoma xenograft = conditions: coDbait 0.6 mg IT alone (group 4) or CQ 1 mg i.p. alone (group 3), with irradiation
Description: Survival of five groups of nude mice bearing SK28 melanoma xenografts has been studied.

[1] = system: SK28 xenografted human melanoma; test: SK28 xenograft survival and tumor growth delay after irradiation with formulated Dbait (Table 2); conditions: IT; for Mean TGD: tumor growth delay
Protocol: The antitumoral effect of formulated Dbait was tested in combination with radiotherapy on SK28 xenografted human melanoma. Dbait/vector complexes were administered 5 hours before each irradiation using intratumoral injections.
SK28 or U87G xenograft tumors were obtained by injecting 10^6 tumor cells into the flanks of adult female nude mice (Charles River strain; L'Arbresle, France). […] After approximately 12 days, when the subcutaneous tumors measured 150-200 mm^3, the mice were separated into homogeneous groups of at most 12 each to receive different treatments. […] Doses were controlled by thermoluminescence dosimetry. A total dose of 30 Gy was delivered in 6 sessions at intervals of three sessions of 5 Gy per week during two weeks. Dbait molecules were prepared in 100 μL of 10% sucrose as previously described for in vitro studies except that PEI mixtures were performed without NaCl (Polyplus-transfection, Strasbourg, France). The Dbait mixtures were incubated for 15 min at room temperature before injection. CoDbait was diluted in 10% sucrose at the required concentration. Intratumoral injections of the indicated amount of Dbait were performed 5 h before each radiotherapy session. Mock treated animals were injected with 100 μL of 10% glucose according to the protocol of the associated assays. Tumor size was assessed by caliper measurements every three days and size was calculated by the formula (2× length×width^2). Mice were weighed and pictures of tumors were taken every week. For ethical reasons, the animals were sacrificed when their tumors reached 2,000 mm^3. The end point used in survival analysis was death day.
Descriptive analyses of the tumor response were performed for each treatment and each tumor type. Day 1 was the day of the first treatment session. All animals were followed for at least 150 days. Median lifetime was estimated according to the Kaplan-Meier method. Tumor growth delay (TGD) was calculated by subtracting the mean tumor volume quadrupling time of the control group from tumor volume quadrupling times of individual mice in each treated group. The mean TGD was calculated for each treated group using the individual measurements. […] A global LogRank was first performed for each group with the same tumor type. Then treatments with Dbait were compared to the mock-treated controls. All tests were considered significant at the 0.05 significance level.

[2] = system: SV40 transformed fibroblasts MRC-5; test: Flow cytometry cellular uptake of formulated Dbait-cy3 (Table 1); type: cell-based, human
Protocol: (§1) The inventors monitored the cellular uptake of the different complexes using a fluorescent cy3-modified Dbait. The initial fluorescence of the cy3-Dbait complex was monitored immediately before transfection. […] Cellular content of human transfected fibroblast cells was measured by flow cytometry analysis.
The Dbait molecules were made by automated solid-phase oligonucleotide synthesis. […] […] (SEQ ID NO: 4) where H is a hexaethyleneglycol linker. Studies on cells in culture were performed using SV40 transformed fibroblasts MRC-5. Cells were grown at 37° C. in monolayer cultures in complete DMEM (Gibco, Cergy-Pontoise, France) with 10% FCS and antibiotics (100 μg/mL streptomycin and 100 μg/mL penicillin) under conditions of 100% humidity, 95% air and 5% CO2. Unless otherwise specified, transfections were performed in 1.2 mL MEM medium without serum in 60 mm diameter plates. Transfection with jetPEI (Polyplus-transfection, Illkirch, France) was performed at an N/P ratio of 6 according to the manufacturer's instructions. Briefly, Dbait was diluted in 150 mM NaCl and gently mixed with an equal volume of PEI in 150 mM NaCl and added to DMEM medium without serum. coDbait was directly added to DMEM medium without serum. Transfection of Dbait molecules was performed with SuperFect reagent in 1.2 mL DMEM medium with serum (in 60 mm diameter plates) for 5 hours and then cells were left to recover for 1 hour if not indicated otherwise. For electroporation, 1.2×10^6 cells were transfected with 2 μg Dbait using the Gene Pulser II (Bio-Rad, Marnes-la-Coquette, France). At the end of the 5h transfection (time zero), medium was replaced by complete medium and cells were grown for the indicated time before being analyzed.
(§2) Cells were transfected with different complexes with Dbait-cy3 for 5 h and allowed to grow 5 hours or 24 hours, then rapidly washed with PBS. Cells were directly analyzed by flow cytometry. For immunofluorescence detection by flow cytometry, the cells were fixed in 2% paraformaldehyde for 10 min prior to immunodetection. […] Cells were washed with PBS and resuspended in PBS with 50 μg/mL propidium iodide, 25U/ml RNaseA. Cells were analyzed by a FACSCalibur flow cytometer (BD Biosciences, Franklin Lakes, N.J., USA) and data was analyzed using BD CellQuest Pro (BD Biosciences) and the free WinMDI 2.8 (Scripps Research Institute, La Jolla, Calif., USA) software.

MRC5 cell line = test: Flow cytometry analysis of cellular uptake in the MRC5 cell line (Cy3); type: cell-based, human
Protocol: Cellular uptake of the Dbait conjugated to cholesterol, in particular CoDbait, in comparison with the Dbait was measured by the inventors by flow cytometry analysis.
Flow cytometry analysis of cellular uptake in the MRC5 cell line performed at 5 hours after the beginning of treatment of various transfection conditions was as described in the table.

zebrafish embryos = test: Injection into 1K-stage zebrafish embryos: distribution and 24 h phenotype toxicity; conditions: same concentration of Dbait, by adjuvant
Protocol: More than 100 embryos were analyzed for each condition.
The observation of phenotypic effects 20 hours after injection allowed assessment of Dbait activity and treatment overall toxicity. […] The 24-hour phenotypes were categorized as described (FIG. 3), allowing quantification of the injected mixture's toxicity.
Zebrafish eggs were obtained from natural spawning of wild type or transgenic (flactin:egfp-ras) fish lines. […] Glass capillaries (Harvard Apparatus GC100-10) were pulled with a KopF vertical pipette puller (KopF 720) to make injection needles. 2 to 5 nl of Dbait solution were injected at the animal pole of embryos in cell cycle 10 and immediately processed for confocal laser scanning microscopy imaging (upright Leica SP2) with 40×/0.8 NA water dipping lens objective. Imaging was performed by simultaneous 480 nm (eGFP) and 561 nm (cy3) excitation. […] One-day-old larvae were observed under the dissecting stop and phenotypes categorized as described in FIG. 3. […] Dbait (coDbait)-cy3 50 μM was injected either alone or in combination with PEI25K (ratio N/P=9), PEI11K (ratio N/P-6), or SuperFect (10 μl/1 μg Dbait).

[3] = Fluorescence of formulated cy3-Dbait before transfection; conditions: fluorescence at FL2 value of the cy3-Dbait formulation
Protocol: as §1
as §2, with “Cells” for “Cells were transfected with different complexes with Dbait-cy3 for 5 h and allowed to grow 5 hours or 24 hours, then rapidly washed with PBS. Cells”

[4] = corrected cellular content FL2/fluorescence, Dbait 1.6 μg/mL

## CCN(CC)CCCC(C)Nc1ccnc2cc(Cl)ccc12 (stereo not shown) [chloroquine, 7-chloro-4-(4-diethylamino-1-methylbutyl-amino)quinoline]
SK28 melanoma xenograft
  radiosensitization: neither coDbait (group 4) nor CQ (group 3) showed significant radiosensitization
[1]; CQ without Dbait
  Mean % TGD: 142%
  Median survival time: 68
  Mean TGD: 8
[2]; mean cellular content FL2 value, no Dbait, chloroquine only
  MCC 5 hrs: 3.12

## Co_siRNA_H2AX-Cy3: siRNA targeting H2AX with a cyanine 3 and a cholesterol at the 5′ and 3′ of the sense strand (sense CAACAAGAAGACGCGAAUCTT; antisense GAUUCGCGUCUUCUUGUUGTT; sense: 5' {Cy3}, 3' {Chol}, sugars by position and backbone not given here; antisense: chemistry not given here)
MRC5 cell line; 79 nM
  Cy3 fluorescence intensity @5 hrs. Mean: 56
  Cy3 fluorescence intensity @5 hrs. Median: 53
MRC5 cell line; 79 nM + CQ 50 μM
  Cy3 fluorescence intensity @5 hrs. Mean: 63
  Cy3 fluorescence intensity @5 hrs. Median: 60
MRC5 cell line; 986 nM
  Cy3 fluorescence intensity @5 hrs. Mean: 710
  Cy3 fluorescence intensity @5 hrs. Median: 661
MRC5 cell line; 986 nM + CQ 50 μM
  Cy3 fluorescence intensity @5 hrs. Mean: 1214
  Cy3 fluorescence intensity @5 hrs. Median: 1144

## Dbait: 32-bp hairpin DNA, SEQ ID NO: 4, hexaethyleneglycol linker; mimics double strand breaks (DNA GCTGTGCCCACAACCCAGCAAACAAGCCTAGA; DNA, backbone not given here; hairpin DNA with hexaethyleneglycol linker)
Zebrafish embryos
  24-hour phenotype / toxicity in zebrafish embryos: no effect on development
[3]
  fluorescence × 10e−6/μg/mL: 6 10e−6/μg/mL
[1]; 6 × 60 μg (3 nmol)
  Mean % TGD: 114%
  Median survival time: 63
  Mean TGD: 3
[1]; 6 × 60 μg (3 nmol), no recurrence within 300 days
  Cured mice: 0
[1]; 6 × 60 μg (3 nmol), versus mock
  Relative risk: 1.40
[2]; [4]
  cor MCC 5 hrs: 0.43
  cor MCC 24 hrs: 0.56
[2]; flow cytometry
  fluorescence distribution of treated cells: not different from untreated controls
[2]; mean cellular content FL2 value, Dbait 1.6 μg/mL
  MCC 24 hrs: 3.45
[2]; mean cellular content FL2 value, Dbait 1.6 μg/mL, chloroquine +/− as in row
  MCC 5 hrs: 2.65
